# Test results reported in patent US20170233414A1, “DERIVATIVES OF BODIPY” (OREGON HEALTH & SCIENCE UNIVERSITY, priority 2016, published 2017).
# Experiment: Fluorescence properties and quantum yield measurements of the BAA library
# Type: physicochemical
# Set-up: FWHM (full-width-at half max): unit not given here
# Details: anhydrous DMSO; for λmax ABS / λmax EM: polystyrene 96 well plate; for FWHM (full-width-at half max): emission; for φfl (quantum yield): relative to reference fluorophore at three concentrations
# Description: General Instruments. Synthesized sample purification was performed with an Agilent 1260 Infinity HPLC utilizing a C18 column (150mm×21.2 mm). MS (HRMS, ESI) spectra data was collected with an Agilent 6244 TOF LC/MS with diode array detector VL+ and C18 column (4.6 mm×50 mm). Absorbance and fluorescence data were measured on a SpectraMax M5 Microplate reader. NMR spectra, ^1H and ^13C, were recorded on a Bruker ARK400 spectrometer. BAA microscopy screening in cells for organelle specificity and signal-to-background ratio was completed with an Axio Zeiss Light Microscope and 63× oil immersion objective.
# Fluorescence Properties and Quantum Yield Measurements. Spectroscopic characterizations were performed in anhydrous DMSO in polystyrene 96 well plate. Analysis included the maximum absorbance wavelength, maximum fluorescence emission wavelength, full-width-at half max, and quantum yield. Quantum yields (φfl) were determined by comparing the area under the emission spectrum of the BAA compound to a reference fluorophore solution at three concentrations using equation 1, where Grad represents the gradient from the plots of integrated fluorescence intensity vs absorbance at three concentrations and q is the refractive index of the solvent. Fluorescein in 0.1 M NaOH (φfl=0.91)^3 was the reference for samples with a max absorbance up to 510 nm, where an excitation of 470 nm was used with the emission integrated between 490 to 800 nm. Rhodamine B in ethanol (φfl=0.70) was the reference for samples with a max absorbance between 511-595 nm, where an excitation of 525 nm was used with the emission integrated between 545 to 800 nm. Cresyl violet in methanol (φfl=0.54)^4 was the reference for samples with a max absorbance above 595 nm, where an excitation of 570 nm was used with the emission integrated between 590 to 800 nm.
Stokes Shift [nm],λmax ABS [nm],λmax EM [nm],FWHM (full-width-at half max),φfl (quantum yield),SMILES
10,574,584,32,0.23,CC1=CC(C=Cc2ccc(Oc3ccc([N+](=O)[O-])cc3)cc2)=[N+]2C1=Cc1ccc(CCC(=O)O)n1[B-]2(F)F [BAA-32a]
12,575,587,35,0.15,CC1=CC(C=Cc2ccc(Br)cc2S(C)(=O)=O)=[N+]2C1=Cc1ccc(CCC(=O)O)n1[B-]2(F)F [BAA-33a]
11,570,581,31,0.96,CC1=CC(C=Cc2cnc(-c3ccc(Cl)cc3)s2)=[N+]2C1=Cc1ccc(C(=Cc3cnc(-c4ccc(Cl)cc4)s3)CC(=O)O)n1[B-]2(F)F [BAA-34b]
9,571,580,32,0.25,CC1=CC(C=Cc2ccccc2Oc2ccc(C#N)cc2)=[N+]2C1=Cc1ccc(C(=Cc3ccccc3Oc3ccc(C#N)cc3)CC(=O)O)n1[B-]2(F)F [BAA-35b]
13,579,592,37,0.35,CC1=CC(C=Cc2ccc(OCc3sccc3C#N)cc2)=[N+]2C1=Cc1ccc(C(=Cc3ccc(OCc4sccc4C#N)cc3)CC(=O)O)n1[B-]2(F)F [BAA-36b]
10,568,578,55,0.54,CC1=CC(C=Cc2ccc(-c3cccnc3)cc2)=[N+]2C1=Cc1ccc(CCC(=O)O)n1[B-]2(F)F [BAA-37a]
9,569,578,30,0.55,CC1=CC(C=Cc2ccc(-c3cccnc3)cc2)=[N+]2C1=Cc1ccc(C(=Cc3ccc(-c4cccnc4)cc3)CC(=O)O)n1[B-]2(F)F [BAA-37b]
2,579,581,33,0.07,CC1=CC(C=Cc2cccc(N3CCCC3)n2)=[N+]2C1=Cc1ccc(CCC(=O)O)n1[B-]2(F)F [BAA-38a]
18,583,601,45,0.26,COc1cc(C=CC2=[N+]3C(=Cc4ccc(C(=Cc5ccc(OCc6cccc(C(F)(F)F)c6)c(OC)c5)CC(=O)O)n4[B-]3(F)F)C(C)=C2)ccc1OCc1cccc(C(F)(F)F)c1 [BAA-40b]
20,582,602,47,0.36,COc1cc(C=CC2=[N+]3C(=Cc4ccc(C(=Cc5ccc(OCc6ccccc6C)c(OC)c5)CC(=O)O)n4[B-]3(F)F)C(C)=C2)ccc1OCc1ccccc1C [BAA-41b]
10,570,580,30,0.36,CC1=CC(C=Cc2ccc(OC(=O)c3ccc(Cl)cc3Cl)cc2)=[N+]2C1=Cc1ccc(CCC(=O)O)n1[B-]2(F)F [BAA-42a]
10,569,579,31,0.45,CC1=CC(C=Cc2ccc(OC(=O)c3ccc(Cl)cc3)cc2)=[N+]2C1=Cc1ccc(CCC(=O)O)n1[B-]2(F)F [BAA-43a]
18,582,600,43,0.28,COc1cc(C=CC2=[N+]3C(=Cc4ccc(C(=Cc5ccc(OCc6cccc(C(F)(F)F)c6)c(OC)c5)CC(=O)O)n4[B-]3(F)F)C(C)=C2)ccc1OCc1cccc(C(F)(F)F)c1 [BAA-44b]
22,589,611,47,0.33,CCOc1ccc(C=CC2=[N+]3C(=Cc4ccc(CCC(=O)O)n4[B-]3(F)F)C(C)=C2)c(OCC)c1 [BAA-47a]
38,603,641,60,0.45,CC1=CC(C=Cc2c[nH]c3ccc(OCc4ccccc4)cc23)=[N+]2C1=Cc1ccc(CCC(=O)O)n1[B-]2(F)F [BAA-48a]
10,571,581,33,0.28,CC1=CC(C=Cc2cc(-n3ccnc3)ccc2C)=[N+]2C1=Cc1ccc(CCC(=O)O)n1[B-]2(F)F [BAA-50a]
9,572,581,34,0.12,CC1=CC(C=Cc2cc(-n3ccnc3)ccc2C)=[N+]2C1=Cc1ccc(C(=Cc3cc(-n4ccnc4)ccc3C)CC(=O)O)n1[B-]2(F)F [BAA-50b]
13,594,607,42,0.06,CCOc1ccc2[nH]c(=O)cc(C=CC3=[N+]4C(=Cc5ccc(CCC(=O)O)n5[B-]4(F)F)C(C)=C3)c2c1 [BAA-51a]
8,577,585,51,0.04,C#CCOc1c(Cl)cc(C=CC2=[N+]3C(=Cc4ccc(CCC(=O)O)n4[B-]3(F)F)C(C)=C2)cc1OC [BAA-52a]
11,570,581,30,0.44,COc1cc(C=CC2=[N+]3C(=Cc4ccc(CCC(=O)O)n4[B-]3(F)F)C(C)=C2)cc(OC)c1 [BAA-53a]
16,576,592,35,0.75,CC1=CC(C=Cc2cnn(-c3ccccc3)c2C)=[N+]2C1=Cc1ccc(CCC(=O)O)n1[B-]2(F)F [BAA-55a]

SMILES,Stokes Shift [nm],λmax ABS [nm],λmax EM [nm],FWHM (full-width-at half max),φfl (quantum yield)
CC1=CC(C=Cc2cc(F)ccc2O)=[N+]2C1=Cc1ccc(C(=Cc3cc(F)ccc3O)CC(=O)O)n1[B-]2(F)F [BAA-31b],12,576,588,34,0.28
CC1=CC(C=Cc2ccc(Cl)nc2)=[N+]2C1=Cc1ccc(CCC(=O)O)n1[B-]2(F)F [BAA-39a],51,606,657,79,0.19
CC1=CC(/C=C/c2ccc(Cl)c(F)c2)=[N+]2C1=Cc1ccc(CCC(=O)O)n1[B-]2(F)F [BAA-54a],8,573,581,46,0.04
